Literature values as cited in patent US7575866B2, “Ligand/binding partner bio-labeling systems” (priority 2003, dated 2009).

What was measured:
Mycobacterium avium DHFR = target: T1, Mycobacterium avium DHFR (Mycobacterium avium, UniProt O30463)
T1 sequence (O30463 1-181): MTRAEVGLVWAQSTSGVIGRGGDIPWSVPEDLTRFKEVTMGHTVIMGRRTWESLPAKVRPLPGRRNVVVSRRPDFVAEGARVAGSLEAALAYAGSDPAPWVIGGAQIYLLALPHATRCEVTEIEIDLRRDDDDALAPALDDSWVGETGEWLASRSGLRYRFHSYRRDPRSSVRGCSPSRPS

2,4-diamino-5-[(2-methoxy-4-carboxybutyloxy)benzyl]pyrimidine
selective binding to Mycobacterium avium DHFR (Mycobacterium avium DHFR): selectively bind

CN(Cc1cnc2nc(N)nc(N)c2n1)c1ccc(C(=O)N[C@@H](CCC(=O)O)C(=O)O)cc1 [MTX, Methotrexate]
extracellular concentration at which DNA damage has been observed (human cells): 10 µM | concentration at which toxicity observed (human leukocytes): 2 µM

CCCCc1c(CN(C)c2ccc(C(=O)N[C@@H](CCC(=O)O)C(=O)O)cc2)cnc2nc(N)nc(N)c12 [5-butyl-5-deazamethotrexate]
inhibitory effect on DHFR lowered relative to MTX (DHFR): 17 fold
